Reference: ChEMBL document CHEMBL1909046, “DrugMatrix in vitro pharmacology data”

Assays:
[1] = biological target: Delta-type opioid receptor (Homo sapiens, UniProt P41143); assay type: cell membranes, HEK293, Membrane; details: hek293; note: in other assays of this panel Not Active means under 50% inhibition at 10 µM
Progesterone receptor = biological target: T1, Progesterone receptor (Bos taurus, UniProt Q690N0); assay: DRUGMATRIX: Progesterone radioligand binding (ligand: [3H] R-5020); assay type: tissue-based, Uterus; details: Not Active = under 50% inhibition at 10 µM
T1 sequence (Q690N0 whole entry): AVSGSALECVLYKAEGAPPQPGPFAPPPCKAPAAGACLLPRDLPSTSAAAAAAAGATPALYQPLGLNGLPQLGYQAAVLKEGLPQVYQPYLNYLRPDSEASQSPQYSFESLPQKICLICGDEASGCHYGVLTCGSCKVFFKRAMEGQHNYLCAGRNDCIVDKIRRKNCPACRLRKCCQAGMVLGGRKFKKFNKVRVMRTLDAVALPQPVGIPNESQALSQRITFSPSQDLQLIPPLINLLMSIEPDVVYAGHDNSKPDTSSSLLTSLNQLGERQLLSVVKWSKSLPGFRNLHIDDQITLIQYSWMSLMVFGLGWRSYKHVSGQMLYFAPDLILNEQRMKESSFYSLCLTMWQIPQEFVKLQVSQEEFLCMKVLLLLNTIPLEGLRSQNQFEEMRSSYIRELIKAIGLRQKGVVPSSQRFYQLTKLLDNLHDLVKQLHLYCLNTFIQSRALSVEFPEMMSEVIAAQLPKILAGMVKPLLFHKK

[2] = biological target: Protein kinase C alpha type (Homo sapiens, UniProt P17252); assay type: cell-based; details: sf9;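 note: inhibition of PKCalpha kinase activity measured in an enzyme assay with histone as the phosphorylation substrate; in other assays of this panel Not Active means under 50% inhibition at 10 µM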
[3] = biological target: T2, Muscarinic acetylcholine receptor M2 (Homo sapiens, UniProt P08172); assay type: cell membranes, CHO-K1, Membrane; details: cho-k1; note: in other assays of this panel Not Active means under 50% inhibition at 10 µM
T2 sequence (P08172 whole entry): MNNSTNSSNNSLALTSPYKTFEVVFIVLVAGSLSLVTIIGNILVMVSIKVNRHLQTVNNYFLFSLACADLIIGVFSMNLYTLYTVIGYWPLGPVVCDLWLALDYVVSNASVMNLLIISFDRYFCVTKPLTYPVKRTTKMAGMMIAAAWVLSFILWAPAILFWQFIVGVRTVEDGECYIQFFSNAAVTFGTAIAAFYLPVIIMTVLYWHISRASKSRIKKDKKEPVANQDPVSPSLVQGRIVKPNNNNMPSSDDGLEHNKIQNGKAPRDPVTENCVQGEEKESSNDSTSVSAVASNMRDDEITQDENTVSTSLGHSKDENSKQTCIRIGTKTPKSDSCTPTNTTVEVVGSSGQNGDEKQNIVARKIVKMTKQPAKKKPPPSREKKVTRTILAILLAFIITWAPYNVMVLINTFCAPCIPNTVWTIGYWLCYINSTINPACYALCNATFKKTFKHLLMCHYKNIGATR

[4] = biological target: T3, Polyunsaturated fatty acid lipoxygenase ALOX15 (Oryctolagus cuniculus, UniProt P12530); assay: biochemical; assay type: tissue-based, Reticulocytes;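 note: inhibition of 15-lipoxygenase enzyme activity measured with linoleic acid as the substrate; in other assays of this panel Not Active means under 50% inhibition at 10 µM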
T3 sequence (P12530 whole entry): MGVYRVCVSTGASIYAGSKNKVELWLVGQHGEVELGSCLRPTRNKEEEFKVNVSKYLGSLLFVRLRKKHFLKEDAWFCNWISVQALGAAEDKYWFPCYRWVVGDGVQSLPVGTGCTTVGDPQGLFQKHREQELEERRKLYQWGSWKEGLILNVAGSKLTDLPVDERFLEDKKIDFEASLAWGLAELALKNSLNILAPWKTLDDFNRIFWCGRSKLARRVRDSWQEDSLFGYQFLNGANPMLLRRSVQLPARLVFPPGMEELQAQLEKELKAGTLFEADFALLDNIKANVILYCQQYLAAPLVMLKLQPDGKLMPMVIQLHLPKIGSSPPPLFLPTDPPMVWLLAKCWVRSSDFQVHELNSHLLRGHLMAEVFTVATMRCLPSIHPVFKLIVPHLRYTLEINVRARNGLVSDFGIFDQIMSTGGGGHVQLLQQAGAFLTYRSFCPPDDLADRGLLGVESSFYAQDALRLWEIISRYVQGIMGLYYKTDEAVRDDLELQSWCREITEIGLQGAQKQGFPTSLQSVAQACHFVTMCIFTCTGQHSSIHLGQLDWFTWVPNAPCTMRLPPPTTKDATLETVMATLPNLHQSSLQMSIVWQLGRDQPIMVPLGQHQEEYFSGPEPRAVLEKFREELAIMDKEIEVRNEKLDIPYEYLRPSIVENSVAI

Cytochrome P450 2A6 = biological target: T4, Cytochrome P450 2A6 (Homo sapiens, UniProt P11509); details: bti-tn-5b1-4; note: in other assays of this panel Not Active means under 50% inhibition at 10 µM
T4 sequence (P11509 whole entry): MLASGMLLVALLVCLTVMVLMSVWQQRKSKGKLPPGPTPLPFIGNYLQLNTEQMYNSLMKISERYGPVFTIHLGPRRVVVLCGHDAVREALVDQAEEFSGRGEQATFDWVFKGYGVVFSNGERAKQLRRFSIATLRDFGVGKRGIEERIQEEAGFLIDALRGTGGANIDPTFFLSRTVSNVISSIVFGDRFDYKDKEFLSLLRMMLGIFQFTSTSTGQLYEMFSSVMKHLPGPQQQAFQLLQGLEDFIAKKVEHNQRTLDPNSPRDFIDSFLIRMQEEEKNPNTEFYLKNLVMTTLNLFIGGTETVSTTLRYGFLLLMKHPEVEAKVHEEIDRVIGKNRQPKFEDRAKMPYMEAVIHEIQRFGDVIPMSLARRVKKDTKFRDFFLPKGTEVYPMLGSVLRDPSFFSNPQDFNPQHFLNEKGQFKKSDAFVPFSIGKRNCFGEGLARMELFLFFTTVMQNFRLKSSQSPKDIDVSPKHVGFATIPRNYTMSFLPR

Delta-type opioid receptor, sequence (P41143 whole entry): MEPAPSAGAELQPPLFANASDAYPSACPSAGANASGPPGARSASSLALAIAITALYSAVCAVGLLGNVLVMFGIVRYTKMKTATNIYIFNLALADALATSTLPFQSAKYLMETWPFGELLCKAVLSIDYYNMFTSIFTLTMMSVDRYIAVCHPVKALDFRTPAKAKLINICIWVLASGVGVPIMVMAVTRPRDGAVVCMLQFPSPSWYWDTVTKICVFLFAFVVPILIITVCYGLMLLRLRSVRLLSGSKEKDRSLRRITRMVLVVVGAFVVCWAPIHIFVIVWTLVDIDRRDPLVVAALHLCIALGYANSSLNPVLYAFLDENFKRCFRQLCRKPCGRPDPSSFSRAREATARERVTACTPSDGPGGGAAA

| Molecule | IC50 [1] | IC50 (Progesterone receptor) | IC50 [2] | IC50 [3] | IC50 ([4]; reticulocytes) | IC50 (Cytochrome P450 2A6) | Ki (Cytochrome P450 2A6) | Ki [1] | Ki (Progesterone receptor) | Ki [2] | Ki [3] | Ki ([4]; reticulocytes) | IC50 (Progesterone receptor; read-out: IC50) [µM] | Ki (Progesterone receptor; read-out: Ki) [µM] | IC50 ([4]; read-out: IC50) [µM] |
| --- | --- | --- | --- | --- | --- | --- | --- | --- | --- | --- | --- | --- | --- | --- | --- |
| Cc1cccc(C)c1NC(=O)C1CCCCN1C (configuration not stated) [MEPIVACAINE] | Not Active | Not Active | Not Active | Not Active | Not Active | Not Active | Not Active |  |  |  |  |  |  |  |  |
| CC1=NN(c2ccccc2)C(=O)C1 [EDARAVONE] | Not Active | Not Active | Not Active | Not Active | Not Active | Not Active | Not Active |  |  |  |  |  |  |  |  |
| CC(C)C[C@H]1C(=O)N2CCC[C@H]2[C@]2(O)O[C@](NC(=O)[C@@H]3C=C4c5cccc6[nH]cc(c56)C[C@H]4N(C)C3)(C(C)C)C(=O)N12 [ERGOCRYPTINE] | Not Active | Not Active | Not Active | Not Active | Not Active | Not Active | Not Active |  |  |  |  |  |  |  |  |
| Cc1cc(O)cc(C)c1Cl [CHLOROXYLENOL] | Not Active | Not Active | Not Active | Not Active | Not Active | Not Active | Not Active |  |  |  |  |  |  |  |  |
| CCOC(=O)c1ncn2c1CN(C)C(=O)c1cc(F)ccc1-2 [FLUMAZENIL] | Not Active | Not Active | Not Active | Not Active | Not Active | Not Active | Not Active |  |  |  |  |  |  |  |  |
| COBALTOUS CHLORIDE | Not Active | Not Active | Not Active | Not Active | Not Active | Not Active | Not Active | Not Active | Not Active | Not Active | Not Active | Not Active |  |  |  |
| COc1ccc2c(c1OC)C(=O)O[C@@H]2[C@H]1c2c(cc3c(c2OC)OCO3)CCN1C [NOSCAPINE] | Not Active | Not Active | Not Active | Not Active | Not Active | Not Active | Not Active |  |  |  |  |  |  |  |  |
| COLISTIN | Not Active | Not Active | Not Active | Not Active | Not Active | Not Active | Not Active | Not Active | Not Active | Not Active | Not Active | Not Active |  |  |  |
| CCN(C(C)=O)c1cccc(-c2ccnc3c(C#N)cnn23)c1 [ZALEPLON] | Not Active | Not Active | Not Active | Not Active | Not Active | Not Active | Not Active |  |  |  |  |  |  |  |  |
| CN1C(=O)CN=C(c2ccccc2)c2cc([N+](=O)[O-])ccc21 [NIMETAZEPAM] | Not Active | Not Active | Not Active | Not Active | Not Active | Not Active | Not Active |  |  |  |  |  |  |  |  |
| ClC(Cl)(Cl)Cl [CARBON TETRACHLORIDE] | Not Active | Not Active | Not Active | Not Active | Not Active | Not Active | Not Active |  |  |  |  |  |  |  |  |
| CC(C)c1c(C(=O)Nc2ccccc2)c(-c2ccccc2)c(-c2ccc(F)cc2)n1CC[C@@H](O)C[C@@H](O)CC(=O)O [ATORVASTATIN] | Not Active | Not Active | Not Active | Not Active | Not Active | Not Active | Not Active |  |  |  |  |  |  |  |  |
| C[C@]12CC[C@H]3[C@@H](CCC4=CC(=O)CC[C@@H]43)[C@@H]1CC[C@@H]2O [NANDROLONE] | Not Active |  | Not Active | Not Active | Not Active | Not Active | Not Active |  |  |  |  |  | 0.172 | 0.0224 |  |
| CCOc1nc2cccc(C(=O)O)c2n1Cc1ccc(-c2ccccc2-c2nnn[nH]2)cc1 | Not Active | Not Active | Not Active | Not Active | Not Active | Not Active | Not Active |  |  |  |  |  |  |  |  |
| COc1cccc2c1C(=O)c1c(O)c3c(c(O)c1C2=O)C[C@@](O)(C(C)=O)C[C@@H]3O[C@H]1C[C@H](N)[C@H](O)[C@H](C)O1 [DAUNORUBICIN] | Not Active | Not Active | Not Active | Not Active | Not Active | Not Active | Not Active |  |  |  |  |  |  |  |  |
| CC(=O)Oc1ccccc1C(=O)O [ASPIRIN] | Not Active | Not Active | Not Active | Not Active | Not Active | Not Active | Not Active |  |  |  |  |  |  |  |  |
| O=c1[nH]c(=O)n([C@H]2C[C@H](O)[C@@H](CO)O2)cc1F [FLOXURIDINE] | Not Active | Not Active | Not Active | Not Active | Not Active | Not Active | Not Active |  |  |  |  |  |  |  |  |
| O=C(O)CC(O)(CC(=O)O)C(=O)O [CITRIC ACID] | Not Active | Not Active | Not Active | Not Active | Not Active | Not Active | Not Active |  |  |  |  |  |  |  |  |
| CCCCC1=NC2(CCCC2)C(=O)N1Cc1ccc(-c2ccccc2-c2nnn[nH]2)cc1 [IRBESARTAN] | Not Active | Not Active | Not Active | Not Active | Not Active | Not Active | Not Active |  |  |  |  |  |  |  |  |
| O=c1c(-c2ccc(O)cc2)coc2cc(O)cc(O)c12 [GENISTEIN] | Not Active | Not Active | Not Active | Not Active |  | Not Active | Not Active |  |  |  |  |  |  |  | 9.03 |
| CN(C)C(=N)NC(=N)N [METFORMIN] | Not Active | Not Active | Not Active | Not Active | Not Active | Not Active | Not Active |  |  |  |  |  |  |  |  |
| C[C@H]1O[C@H](O[C@H]2[C@H](O)[C@@H](O)[C@@H](O[C@H]3[C@H](O)[C@@H](O)C(O)O[C@@H]3CO)O[C@@H]2CO)[C@H](O)[C@@H](O)[C@@H]1N[C@H]1C=C(CO)[C@@H](O)[C@H](O)[C@H]1O (some centres not stated) [ACARBOSE] | Not Active | Not Active | Not Active | Not Active | Not Active | Not Active | Not Active |  |  |  |  |  |  |  |  |
| COc1ccccc1N | Not Active | Not Active | Not Active | Not Active |  | Not Active | Not Active |  |  |  |  |  |  |  | 2.05 |
